# The source made the active and inactive calls. No cut-off for these calls is given here.
# Tested on: not listed separately
# Assay: Cytotoxicity against human PBMC cells assessed as reduction in cell viability at 10 uM incubated for 48 hrs by MTS assay
# Format: cell-based
# Conditions: not given
row,SMILES,Activity
1,CS(=O)(=O)c1nc(-c2ccco2)cc(C(F)(F)F)n1,Toxic

# Tested on: not listed separately
# Assay: Cytotoxicity against human PBMC cells assessed as reduction in cell viability up to 50 uM incubated for 48 hrs by MTS assay
# Format: cell-based
# Conditions: not given
row,SMILES,Activity
1,OCc1ccc(CNc2nc(-c3ccco3)cc(C(F)(F)F)n2)cc1,Non-Toxic

# Tested on: not listed separately
# Assay: Cytotoxicity against human HEK-Blue hTLR8 cells assessed as reduction in cell viability at 50 uM by MTT assay
# Format: cell-based
# Conditions: HEK-Blue hTLR8 cells, read-out: INH
row,SMILES,cytotoxicity at 50 µM [%]
1,FC(F)(F)c1cc(-c2ccccc2)nc(NCc2cccs2)n1,40

# Same assay, conditions: hek-blue htlr8, 50 µM
row,SMILES,Activity
1,NCc1ccc(CNc2nc(-c3ccco3)cc(C(F)(F)F)n2)cc1,Toxic
2,NCc1cccc(CNc2nc(-c3ccco3)cc(C(F)(F)F)n2)c1,Toxic

# Molecular target: T1, Toll-like receptor 8 (Homo sapiens) (UniProt Q9NR97)
# T1 sequence (whole entry): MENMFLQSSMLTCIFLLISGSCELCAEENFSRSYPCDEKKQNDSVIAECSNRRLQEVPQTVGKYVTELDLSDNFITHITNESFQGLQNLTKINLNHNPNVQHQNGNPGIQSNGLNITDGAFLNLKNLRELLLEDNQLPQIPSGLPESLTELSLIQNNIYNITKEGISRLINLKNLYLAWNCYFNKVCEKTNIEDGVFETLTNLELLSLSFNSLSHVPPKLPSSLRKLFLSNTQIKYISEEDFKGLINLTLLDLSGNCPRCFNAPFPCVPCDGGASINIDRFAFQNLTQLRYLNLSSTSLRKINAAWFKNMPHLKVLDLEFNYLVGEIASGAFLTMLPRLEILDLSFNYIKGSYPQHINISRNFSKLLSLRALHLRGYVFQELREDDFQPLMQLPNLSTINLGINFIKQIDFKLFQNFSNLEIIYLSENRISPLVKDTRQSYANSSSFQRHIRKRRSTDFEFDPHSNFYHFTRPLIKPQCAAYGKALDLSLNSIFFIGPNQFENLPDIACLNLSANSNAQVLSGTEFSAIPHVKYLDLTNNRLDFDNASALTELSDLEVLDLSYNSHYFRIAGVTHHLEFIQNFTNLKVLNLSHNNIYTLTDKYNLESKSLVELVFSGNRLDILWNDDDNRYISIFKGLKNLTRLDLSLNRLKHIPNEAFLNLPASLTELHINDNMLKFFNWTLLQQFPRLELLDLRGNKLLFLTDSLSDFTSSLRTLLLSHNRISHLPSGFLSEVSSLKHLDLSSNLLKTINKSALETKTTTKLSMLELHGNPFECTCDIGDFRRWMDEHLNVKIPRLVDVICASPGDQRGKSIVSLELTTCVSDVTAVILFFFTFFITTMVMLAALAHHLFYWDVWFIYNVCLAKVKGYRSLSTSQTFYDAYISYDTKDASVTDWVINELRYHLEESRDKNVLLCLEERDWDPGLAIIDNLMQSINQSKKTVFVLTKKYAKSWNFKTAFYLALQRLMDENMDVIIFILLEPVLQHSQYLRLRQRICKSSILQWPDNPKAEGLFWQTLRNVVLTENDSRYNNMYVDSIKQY
# Assay: Negative modulator activity at human TLR8 expressed in HEK-Blue hTLR8 cells assessed as inhibition of TL8-506 stimulated NF-kappaB activation at 10 uM preincubated with compound for 1 hr followed by TL8-506 stimulation for 24 hrs by SEAP-based colorimetric assay
# Format: cell-based
# Conditions: filed as modulator, time 25.0 hrs
row,inhibition [%],SMILES
1,50,FC(F)(F)c1cc(-c2ccccc2)nc(NCc2cccs2)n1

# Molecular target: T1, Toll-like receptor 8 (Homo sapiens)
# Assay: Negative modulator activity at human TLR8 expressed in HEK-Blue hTLR8 cells assessed as inhibition of TL8-506 stimulated NF-kappaB activation at 25 uM preincubated with compound for 1 hr followed by TL8-506 stimulation for 24 hrs by SEAP-based colorimetric assay
# Format: cell-based
# Conditions: filed as modulator, time 25.0 hrs
row,inhibition [%],SMILES
1,60,FC(F)(F)c1cc(-c2ccccc2)nc(NCc2cccs2)n1
2,75,NCc1ccc(CNc2nc(-c3ccco3)cc(C(F)(F)F)n2)cc1
3,50,NCc1cccc(CNc2nc(-c3ccco3)cc(C(F)(F)F)n2)c1

# Molecular target: T2, Toll-like receptor 8 (Homo sapiens, UniProt Q9NR97)
# T2 sequence (Q9NR97 whole entry): T1 sequence (whole entry)
# Assay: (§1) Negative modulator activity at human TLR8 expressed in HEK-Blue hTLR8 cells assessed as inhibition of TL8-506 stimulated NF-kappaB activation preincubated with compound for 1 hr followed by TL8-506 stimulation for 24 hrs by SEAP-based colorimetric assay
# Format: cell-based
# Conditions: hek-blue htlr8
row,IC50,SMILES
1,Not Active,Oc1cccc(CNc2nc(-c3ccccc3)cc(C(F)(F)F)n2)c1
2,Not Active,O=C(O)c1ccc(CNc2nc(-c3ccco3)cc(C(F)(F)F)n2)cc1
3,Not Active,CS(=O)(=O)c1nc(-c2ccccc2)cc(C(F)(F)F)n1
4,Not Active,COc1ccc(CNc2nc(-c3ccco3)cc(C(F)(F)F)n2)cc1
5,Not Active,OCc1cccc(CNc2nc(-c3ccco3)cc(C(F)(F)F)n2)c1
6,Not Active,COc1cccc(CNc2nc(-c3ccco3)cc(C(F)(F)F)n2)c1

# Same assay, conditions: read-out: IC50
row,IC50 [µM],SMILES
1,22,Oc1cccc(CNc2nc(C3CCCCC3)cc(C(F)(F)F)n2)c1
2,23,Oc1cccc(CNc2nc(-c3ccco3)cc(C(F)(F)F)n2)c1
3,77,FC(F)(F)c1cc(-c2ccco2)nc(Nc2ccccc2)n1
4,> 100,FC(F)(F)c1cc(-c2ccco2)nc(NCc2ccccc2)n1
5,> 100,FC(F)(F)c1cc(-c2ccco2)nc(NCCc2ccccc2)n1
6,11,Oc1ccc(CNc2nc(-c3ccco3)cc(C(F)(F)F)n2)cc1

# Molecular target: T1, Toll-like receptor 8 (Homo sapiens)
# Assay: as §1
# Format: cell-based
# Conditions: filed as modulator, time 25.0 hrs
row,inhibition,SMILES
1,Active,Cc1ccc(-c2cc(C(F)(F)F)nc(NCc3cccs3)n2)cc1
2,Active,Cc1cc(-c2ccco2)nc(NCc2cccs2)n1
3,Active,COc1ccc(-c2cc(C(F)(F)F)nc(NCc3cccs3)n2)cc1

# Same assay, conditions: time 25.0 hrs
row,inhibition,SMILES
1,inactive,CCCCNc1nc(-c2ccco2)cc(C(F)(F)F)n1
2,inactive,FC(F)(F)c1cc(-c2ccco2)nc(NCC2CC2)n1
3,inactive,OCCOCCNc1nc(-c2ccco2)cc(C(F)(F)F)n1
4,inactive,CCCCCCNc1nc(-c2ccco2)cc(C(F)(F)F)n1
5,inactive,FC(F)(F)c1cc(C2CCCCC2)nc(NCc2cccs2)n1
6,inactive,c1coc(-c2ccnc(NCc3cccs3)n2)c1
7,inactive,OCCNc1nc(-c2ccco2)cc(C(F)(F)F)n1
8,inactive,CC(C)Nc1nc(-c2ccco2)cc(C(F)(F)F)n1
9,inactive,FC(F)(F)c1cc(-c2ccco2)nc(NC2CCCC2)n1
10,inactive,CC(C)CNc1nc(-c2ccco2)cc(C(F)(F)F)n1
11,inactive,FC(F)(F)c1cc(-c2ccco2)nc(NC2CCC2)n1
12,inactive,FC(F)(F)c1cc(-c2ccco2)nc(NC2CC2)n1
13,inactive,FC(F)(F)c1cc(-c2ccco2)ncn1
14,inactive,FC(F)(F)c1ccnc(NCc2cccs2)n1
15,inactive,CCNc1nc(-c2ccco2)cc(C(F)(F)F)n1
16,inactive,Cc1cc(C(F)(F)F)nc(NCc2cccs2)n1
17,inactive,CCCNc1nc(-c2ccco2)cc(C(F)(F)F)n1
18,inactive,FC(F)(F)c1cc(-c2ccco2)nc(NCCN2CCOCC2)n1
19,inactive,FC(F)(F)c1cc(-c2ccco2)nc(NC2CCCCC2)n1
20,inactive,C=CCNc1nc(-c2ccco2)cc(C(F)(F)F)n1
